Assay results: the NIST ThermoML archive (doi:10.1007/s10765-013-1526-8)
Numbers after ± are expanded uncertainties.

Legend:
[1] = 101 kPa, Liquid; for speed of sound: Sing-around technique in a fixed-path interferometer
[2] = refractive index (Na D-line) (dimensionless); conditions: 101.33 kPa, Liquid
[3] = xn = mol fraction of the nth substance listed; conditions: 101 kPa, Liquid; for speed of sound: Sing-around technique in a fixed-path interferometer
[4] = refractive index (Na D-line) (dimensionless); xn = mol fraction of the nth substance listed; conditions: 101 kPa, Liquid

| SMILES | mass density ([1]; 298.15 K) [kg/m3] | viscosity ([1]; 298.15 K) [mPa·s] | speed of sound ([1]; 298.15 K) [m/s] | mass density ([1]; 303.15 K) [kg/m3] | viscosity ([1]; 303.15 K) [mPa·s] | speed of sound ([1]; 303.15 K) [m/s] | mass density ([1]; 308.15 K) [kg/m3] | viscosity ([1]; 308.15 K) [mPa·s] | speed of sound ([1]; 308.15 K) [m/s] | refractive index ([2]; 298.15 K) | refractive index ([2]; 303.15 K) | refractive index ([2]; 308.15 K) | other results |
| --- | --- | --- | --- | --- | --- | --- | --- | --- | --- | --- | --- | --- | --- |
| Clc1ccccc1 [chlorobenzene] | 1101.03 ± 1.1 | 0.767 ± 0.079 | 1268 ± 10 | 1095.52 ± 1.1 | 0.716 ± 0.074 | 1249 ± 10 | 1090.2 ± 1.1 | 0.66 ± 0.069 | 1231 ± 10 | 1.524 ± 0.002 | 1.521 ± 0.002 | 1.518 ± 0.002 | – |
| Brc1ccccc1 [bromobenzene] | 1488.12 ± 2.2 | 1.065 ± 0.1 | 1153 ± 10 | 1481.4 ± 2.2 | 1.005 ± 0.099 | 1138 ± 10 | 1474.58 ± 2.2 | 0.972 ± 0.096 | 1122 ± 10 | 1.557 ± 0.0019 | 1.555 ± 0.0019 | 1.553 ± 0.0019 | – |
| CCCCC(CC)CO (centres undefined) [2-ethyl-1-hexanol] | 829.07 ± 0.82 | 8.418 ± 0.65 | 1319 ± 10 | 825.39 ± 0.83 | 7.144 ± 0.57 | 1301 ± 10 | 821.68 ± 0.84 | 6.09 ± 0.5 | 1283 ± 10 | 1.4287 ± 0.0019 | 1.4266 ± 0.0019 | 1.4245 ± 0.0019 | – |
| CCCCC(CC)CO (centres undefined) [2-ethyl-1-hexanol] + Brc1ccccc1 | – | – | – | – | – | – | – | – | – | – | – | – | speed of sound ([3]; 298.15 K, x2 = 0): 1319 ± 10 m/s; mass density ([3]; 298.15 K, x2 = 0): 829.07 ± 0.82 kg/m3; viscosity ([3]; 298.15 K, x2 = 0): 8.418 ± 0.65 mPa·s; speed of sound ([3]; 303.15 K, x2 = 0): 1301 ± 10 m/s; mass density ([3]; 303.15 K, x2 = 0): 825.39 ± 0.83 kg/m3; viscosity ([3]; 303.15 K, x2 = 0): 7.144 ± 0.57 mPa·s; speed of sound ([3]; 308.15 K, x2 = 0): 1283 ± 10 m/s; mass density ([3]; 308.15 K, x2 = 0): 821.68 ± 0.84 kg/m3; viscosity ([3]; 308.15 K, x2 = 0): 6.09 ± 0.5 mPa·s; refractive index ([4]; 298.15 K, x2 = 0): 1.4287 ± 0.0019; refractive index ([4]; 303.15 K, x2 = 0): 1.4266 ± 0.0019; refractive index ([4]; 308.15 K, x2 = 0): 1.4245 ± 0.0019 |
| c1ccccc1 [benzene] + CCCCC(CC)CO | – | – | – | – | – | – | – | – | – | – | – | – | speed of sound ([3]; 298.15 K, x1 = 1): 1299 ± 10 m/s; mass density ([3]; 298.15 K, x1 = 1): 873.66 ± 0.66 kg/m3; viscosity ([3]; 298.15 K, x1 = 1): 0.603 ± 0.065 mPa·s; speed of sound ([3]; 303.15 K, x1 = 1): 1276 ± 10 m/s; mass density ([3]; 303.15 K, x1 = 1): 868.29 ± 0.68 kg/m3; viscosity ([3]; 303.15 K, x1 = 1): 0.557 ± 0.061 mPa·s; speed of sound ([3]; 308.15 K, x1 = 1): 1253 ± 10 m/s; mass density ([3]; 308.15 K, x1 = 1): 862.92 ± 0.69 kg/m3; viscosity ([3]; 308.15 K, x1 = 1): 0.533 ± 0.059 mPa·s; refractive index ([4]; 298.15 K, x1 = 1): 1.4969 ± 0.0019; refractive index ([4]; 303.15 K, x1 = 1): 1.4949 ± 0.0019; refractive index ([4]; 308.15 K, x1 = 1): 1.4929 ± 0.0019 |
| Clc1ccccc1 [chlorobenzene] + CCCCC(CC)CO | – | – | – | – | – | – | – | – | – | – | – | – | speed of sound ([3]; 298.15 K, x1 = 1): 1268 ± 10 m/s; mass density ([3]; 298.15 K, x1 = 1): 1101.03 ± 1.1 kg/m3; viscosity ([3]; 298.15 K, x1 = 1): 0.767 ± 0.079 mPa·s; speed of sound ([3]; 303.15 K, x1 = 1): 1249 ± 10 m/s; mass density ([3]; 303.15 K, x1 = 1): 1095.52 ± 1.1 kg/m3; viscosity ([3]; 303.15 K, x1 = 1): 0.716 ± 0.074 mPa·s; speed of sound ([3]; 308.15 K, x1 = 1): 1231 ± 10 m/s; mass density ([3]; 308.15 K, x1 = 1): 1090.2 ± 1.1 kg/m3; viscosity ([3]; 308.15 K, x1 = 1): 0.66 ± 0.069 mPa·s; refractive index ([4]; 298.15 K, x1 = 1): 1.524 ± 0.002; refractive index ([4]; 303.15 K, x1 = 1): 1.521 ± 0.002; refractive index ([4]; 308.15 K, x1 = 1): 1.518 ± 0.002 |
| c1ccccc1 [benzene] | 873.66 ± 0.66 | 0.603 ± 0.065 | 1299 ± 10 | 868.29 ± 0.68 | 0.557 ± 0.061 | 1276 ± 10 | 862.92 ± 0.69 | 0.533 ± 0.059 | 1253 ± 10 | 1.4969 ± 0.0019 | 1.4949 ± 0.0019 | 1.4929 ± 0.0019 | – |
